Test: Deuterium/hydrogen (D/H) exchange in deuterium-enriched dBET1 in PBS (HPLC/UV and LC/MS)
Format: physicochemical
Details: PBS pH 7.4, 25° C.
Procedure: In order to evaluate the stability against racemization provided by deuterium enrichment at the racemizable chiral center of the glutarimide portion of dBET1, a sample of racemic, deuterium-enriched dBET1 from Example 1 (i.e., D-dBET1 from Example 1) was incubated in PBS (pH=7.4) at 25° C. in the presence of ethyl paraben as an internal standard. A 20 μL solution of racemic, deuterium-enriched dBET1 (D-dBET1), aliquoted from 21.6 mg dissolved in 1 mL DMSO, was added to 4 mL of PBS (pH=7.4). The reaction was performed in duplicate. Aliquots were taken out at preset times and quenched with methanol in the presence of acetic acid (250 μL aliquot quenched with 500 μL 5% (v/v) acetic acid in methanol). The samples were analyzed by HPLC/UV (10 μL injection) and LC/MS (1 μL injection) using a reverse-phase column.
Since the reaction is performed in an achiral medium, the kinetics of D/H exchange will be independent of the chirality of the starting material. As a result, separation of the enantiomers of D-dBET1 prior to the stability study is not required.
A change in the ratio is expected if D/H exchange is observed since, for example, a peak at M+2, where M is the mass of the mono-deuterated isotopomer of dBET1, would by D/H exchange disappear and give a corresponding peak at M+1. Similarly, M+3 would give M+2, etc.

half-life at 0.107 mg/mL: > 24 h
change of mass spectral isotopic distribution as a function of incubation time (up to 24h, LC/MS): did not change significantly
SMILES: [2H]C1(N2C(=O)c3cccc(OCC(=O)NCCCCNC(=O)C[C@@H]4N=C(c5ccc(Cl)cc5)c5c(sc(C)c5C)-n5c(C)nnc54)c3C2=O)CCC(=O)NC1=O (mixture of isomers) [D-dBET1]
area of chromatography peak normalized to internal standard (UV analysis) (ethyl paraben internal standard): decreased as a function of the incubation time

— patent US10189858B2, “Deuterium-enriched isoindolinonyl-piperidinonyl conjugates and oxoquinazolin-3(4H)-yl-piperidinonyl conjugates and methods of treating medical disorders using same” (DeuteRx, LLC, priority 2015, dated 2019)
